Laboratory results reported in the NIST ThermoML archive (doi:10.1016/j.jct.2005.04.015).

Experiment: excess molar enthalpy (molar enthalpy of mixing); xn = mol fraction of the nth substance listed
Conditions: Liquid, Flow calorimetry

CCOC=O [ethyl methanoate] + CCCCO
excess molar enthalpy [kcal/mol]
Conditions | 298.15 K | 308.15 K
5000 kPa, x1 = 0.0499 | 0.0919 | –
5000 kPa, x1 = 0.1005 | 0.17 | –
5000 kPa, x1 = 0.1488 | 0.232 | –
5000 kPa, x1 = 0.2008 | 0.285 | –
5000 kPa, x1 = 0.2505 | 0.325 | –
5000 kPa, x1 = 0.3009 | 0.355 | –
5000 kPa, x1 = 0.3488 | 0.377 | –
5000 kPa, x1 = 0.4006 | 0.393 | –
5000 kPa, x1 = 0.4498 | 0.401 | –
5000 kPa, x1 = 0.4997 | 0.399 | –
5000 kPa, x1 = 0.6015 | 0.376 | –
5000 kPa, x1 = 0.65 | 0.356 | –
5000 kPa, x1 = 0.6991 | 0.33 | –
5000 kPa, x1 = 0.7489 | 0.294 | –
5000 kPa, x1 = 0.7993 | 0.252 | –
5000 kPa, x1 = 0.8503 | 0.202 | –
5000 kPa, x1 = 0.8983 | 0.148 | –
5000 kPa, x1 = 0.9507 | 0.073 | –
10000 kPa, x1 = 0.0497 | 0.0909 | –
10000 kPa, x1 = 0.1002 | 0.169 | –
10000 kPa, x1 = 0.1501 | – | 0.259
10000 kPa, x1 = 0.1514 | 0.233 | –
10000 kPa, x1 = 0.1999 | – | 0.314
10000 kPa, x1 = 0.2003 | 0.281 | –
10000 kPa, x1 = 0.2499 | 0.319 | –
10000 kPa, x1 = 0.2504 | – | 0.359
10000 kPa, x1 = 0.2989 | – | 0.39
10000 kPa, x1 = 0.3002 | 0.348 | –
10000 kPa, x1 = 0.3508 | – | 0.416
10000 kPa, x1 = 0.3513 | 0.372 | –
10000 kPa, x1 = 0.3998 | 0.385 | –
10000 kPa, x1 = 0.4007 | – | 0.431
10000 kPa, x1 = 0.449 | 0.393 | –
10000 kPa, x1 = 0.4514 | – | 0.438
10000 kPa, x1 = 0.4989 | 0.393 | –
10000 kPa, x1 = 0.4998 | – | 0.437
10000 kPa, x1 = 0.549 | – | 0.429
10000 kPa, x1 = 0.5494 | 0.385 | –
10000 kPa, x1 = 0.5988 | – | 0.414
10000 kPa, x1 = 0.6007 | 0.371 | –
10000 kPa, x1 = 0.6492 | 0.35 | 0.391
10000 kPa, x1 = 0.6984 | 0.324 | –
10000 kPa, x1 = 0.7004 | – | 0.361
10000 kPa, x1 = 0.7482 | 0.288 | –
10000 kPa, x1 = 0.7493 | – | 0.326
10000 kPa, x1 = 0.7987 | 0.244 | 0.281
10000 kPa, x1 = 0.8488 | – | 0.228
10000 kPa, x1 = 0.8499 | 0.193 | –
10000 kPa, x1 = 0.8996 | – | 0.165
10000 kPa, x1 = 0.9018 | 0.134 | –
10000 kPa, x1 = 0.9506 | 0.0751 | –

CCOC=O [ethyl methanoate] + CCCO
excess molar enthalpy [kcal/mol]
Conditions | 298.15 K | 308.15 K
5000 kPa, x1 = 0.0488 | 0.0707 | –
5000 kPa, x1 = 0.1003 | 0.15 | –
5000 kPa, x1 = 0.1515 | 0.212 | –
5000 kPa, x1 = 0.1993 | 0.258 | –
5000 kPa, x1 = 0.2498 | 0.297 | –
5000 kPa, x1 = 0.3 | 0.324 | –
5000 kPa, x1 = 0.3498 | 0.344 | –
5000 kPa, x1 = 0.3992 | 0.359 | –
5000 kPa, x1 = 0.4512 | 0.363 | –
5000 kPa, x1 = 0.5 | 0.361 | –
5000 kPa, x1 = 0.5513 | 0.353 | –
5000 kPa, x1 = 0.5995 | 0.341 | –
5000 kPa, x1 = 0.6501 | 0.323 | –
5000 kPa, x1 = 0.7003 | 0.297 | –
5000 kPa, x1 = 0.7502 | 0.265 | –
5000 kPa, x1 = 0.7998 | 0.225 | –
5000 kPa, x1 = 0.849 | 0.181 | –
5000 kPa, x1 = 0.9006 | 0.124 | –
5000 kPa, x1 = 0.9491 | 0.0666 | –
10000 kPa, x1 = 0.0487 | 0.0792 | 0.0703
10000 kPa, x1 = 0.1 | 0.158 | –
10000 kPa, x1 = 0.1511 | 0.22 | 0.221
10000 kPa, x1 = 0.1988 | 0.266 | 0.269
10000 kPa, x1 = 0.2492 | 0.303 | 0.309
10000 kPa, x1 = 0.2993 | 0.331 | 0.34
10000 kPa, x1 = 0.349 | 0.35 | 0.361
10000 kPa, x1 = 0.4013 | 0.363 | 0.376
10000 kPa, x1 = 0.4504 | 0.37 | 0.383
10000 kPa, x1 = 0.4992 | 0.368 | 0.382
10000 kPa, x1 = 0.5505 | 0.361 | 0.374
10000 kPa, x1 = 0.5987 | 0.348 | 0.359
10000 kPa, x1 = 0.6493 | 0.329 | 0.337
10000 kPa, x1 = 0.6996 | 0.302 | 0.311
10000 kPa, x1 = 0.7496 | 0.27 | 0.276
10000 kPa, x1 = 0.7993 | 0.232 | 0.234
10000 kPa, x1 = 0.8513 | 0.184 | 0.185
10000 kPa, x1 = 0.9003 | 0.132 | 0.134
10000 kPa, x1 = 0.949 | 0.072 | 0.0643
